For the first assay, the system named is C. albicans susceptible strain HLY4123. Briefly: Dose-response curves of test compounds against C. albicans with fluconazole. In kind it is cell-based. The settings on record: strain HLY4123, in combination with fluconazole.
For `Cc1c(Cl)ccc2c1NC(=O)[C@@]21[C@@H]2C(=O)N(c3ccccc3)C(=O)[C@@H]2[C@H]2C[C@@H](OC(=O)c3ccccc3)CN21` [Compound 25b, (−)-(3R,3a′R,7′R, 8a′R,8b′S)-6-chloro-7-methyl-1′,2,3′-trioxo-2′-phenyl-2′,3′,3a′,6′,7′,8′, 8a′,8b′-octahydro-1′H-spiro[indoline-3,4′-pyrrolo[3,4-a]pyrrolizin]-7′-yl benzoate], the “activity under the conditions of the assay” value is recorded as “almost no activity”.
On the same count and under the same terms, then `Cc1c(Cl)ccc2c1NC(=O)[C@]21[C@H]2C(=O)N(c3ccccc3)C(=O)[C@H]2[C@@H]2C[C@@H](OC(=O)c3ccccc3)CN21` [Compound 25a, (+)-(3S,3a′S,7′R,8a′S,8b′R)-6-chloro-7-methyl-1′,2,3′-tri oxo-2′-phenyl-2′,3′,3a′,6′,7′,8′,8a′,8b′-octahydro-1′H-spiro[indoline-3,4′-pyrrolo[3,4-a]pyrrolizin]-7′-yl benzoate], with “almost no activity”.

The assay is the same for the next values; noted with them: strain HLY4123, in the presence of fluconazole (0.25 μg/mL); mean ± SD of three independent experiments.
In the case of `Cc1cccc2c1NC(=O)[C@@]21[C@H]2C(=O)N(c3ccccc3)C(=O)[C@H]2[C@H]2CN(C(=O)OC(C)(C)C)CCN21` (racemic) [Compound 22, (±)-tert-Butyl (3R,3a′R,3b′S,9a′S)-7-methyl-1′,2,3′-trioxo-2′-phenyl-2′, 3′,3a′,3b′,4′,6′,7′,9a′-octahydrospiro[indoline-3,9′-pyrrolo[3′,4′:3,4]pyrrolo[1,2-a]pyrazine]-5′(1′H)-carboxylate], the 50% effective concentration (EC50) was 213 ± 80 nM.
The same measure, in the same setting: the result for `Cc1c(Cl)ccc2c1NC(=O)[C@@]21[C@H]2C(=O)N(c3ccc(F)cc3)C(=O)[C@H]2[C@H]2CN(C(=O)OC(C)(C)C)CCN21` (racemic) [Compound 15, (±)-tert-Butyl (3R,3a′R,3b′S,9a′S)-6-chloro-2′-(4-fluorophenyl)-7-methyl-1′,2,3′-trioxo-2′,3′,3a′,3b′,4′,6′,7′,9a′-octahydrospiro[indoline-3,9′-pyrrolo[3′,4′:3,4]pyrrolo[1,2-a]pyrazine]-5′(1′H)-carboxylate] reads 37 ± 1 nM; that for `Cc1c(Cl)ccc2c1N(Cc1ccccc1)C(=O)[C@@]21[C@H]2C(=O)N(c3ccccc3)C(=O)[C@H]2[C@H]2CN(C(=O)OC(C)(C)C)CCN21` (racemic) [Compound 17, (±)-tert-butyl (3R,3a′R,3b′S,9a′S)-1-benzyl-6-chloro-7-methyl-1′,2,3′-trioxo-2′-phenyl-2′,3′,3a′,3b′,4′,6′,7′,9a′-octahydrospiro [indoline-3,9′-pyrrolo[3′,4′:3,4]pyrrolo[1,2-a]pyrazine]-5′(1′H)-carboxy late], over 100000 nM.
Regarding `Cc1c(Cl)ccc2c1NC(=O)[C@@]21[C@H]2C(=O)N(c3cc(C(F)(F)F)cc(C(F)(F)F)c3)C(=O)[C@H]2[C@H]2CN(C(=O)OC(C)(C)C)CCN21` (racemic) [Compound 16, (±)-tert-Butyl (3R,3a′R,3b′S,9a′S)-2′-(3,5-bis(trifluoromethyl)phenyl)-6-chloro-7-methyl-1′,2,3′-trioxo-2′,3′,3a′,3b′,4′,6′,7′,9a′-octahydrospiro [indoline-3,9′-pyrrolo[3′,4′:3,4]pyrrolo[1,2-a]pyrazine]-5′(1′H)-carboxy late], the EC50 turned out to be 23.7 ± 10 nM.
The same measure, in the same setting: the result for `CC(C)(C)OC(=O)NCCCC[C@H]1N[C@]2(C(=O)Nc3ccccc32)[C@H]2C(=O)N(Cc3ccccc3)C(=O)[C@@H]12` (racemic) [Compound 10, (±)-tert-Butyl (4-((3R,3′R,3a′R,6a′S)-5′-benzyl-2,4′,6′-trioxo-3′,3a′,4′,5′, 6′,6a′-hexahydro-2′H-spiro[indoline-3,1′-pyrrolo[3,4-c]pyrrol]-3′-yl)butyl)carbamate] reads over 100000 nM; that for `CO[C@H](C(=O)N1CCN2[C@H](C1)[C@@H]1C(=O)N(c3ccccc3)C(=O)[C@@H]1[C@@]21C(=O)Nc2c1ccc(Cl)c2C)c1ccccc1` (racemic) [Compound 28, (±)-(3R,3a′R,3b′S,9a′S)-6-chloro-5′-((S)-2-methoxy-2-phenylacetyl)-7-methyl-2′-phenyl-3a′,4′,5′,6′,7′,9a′-hexahydrospiro [indoline-3,9′-pyrrolo[3′,4′:3,4]pyrrolo[1,2-a]pyrazine]-1′,2,3′(2′H, 3b′H)-trione], 35 ± 7 nM; that for `COC(=O)CCCCCCCCC(=O)N1CCN2[C@H](C1)[C@@H]1C(=O)N(c3ccccc3)C(=O)[C@@H]1[C@@]21C(=O)Nc2c1ccc(Cl)c2C` (racemic) [Compound 27, (±)-methyl 10-((3R,3a′R,3b′S,9a′S)-6-chloro-7-methyl-1′,2,3′-trioxo-2′-phenyl-2′,3′,3a′,3b′,4′,6′,7′,9a′-octahydrospiro [indoline-3,9′-pyrrolo[3′,4′:3,4]pyrrolo[1,2-a]pyrazin]-5′(1′H)-yl)-10-oxodecanoate], 37.9 ± 9 nM.
In the case of “(±)-tert-Butyl (3R,3a′R,3b′S,9a′S)-2′-benzyl-1′,2,3′-trioxo-2′,3′,3a′,3b′, 4′,6′,7′,9a′-octahydrospiro[indoline-3,9′-pyrrolo[3′,4′:3,4]pyrrolo[1,2-a]pyrazine]-5′(1′H)-carboxylate [Compound 19]”, the EC50 was over 100000 nM.
Same read-out and setting: the result for `O=C1[C@H]2[C@@H](Cc3ccccc3)N[C@]3(C(=O)N(Cc4ccccc4)c4ccccc43)[C@H]2C(=O)N1Cc1ccccc1` (racemic) [Compound 11, (±)-(3R,3′R,3a′R,6a′S)-1,3′,5′-Tribenzyl-2′,3′,3a′,6a′-tetrahydro-4′H-spi ro[indoline-3,1′-pyrrolo[3,4-c]pyrrole]-2,4′,6′(5′H)-trione] reads over 10000 nM; that for `Cc1c(Cl)ccc2c1NC(=O)[C@@]21[C@H]2C(=O)N(c3ccccc3)C(=O)[C@H]2[C@H]2CN(C(=O)CCc3ccccc3)CCN21` (racemic) [Compound 29, (±)-(3R,3a′R,3b′S,9a′S)-6-chloro-7-methyl-2′-phenyl-5′-(3-phenylpropanoyl)-3a′,4′,5′,6′,7′,9a′-hexahydrospiro[indoline-3,9′-pyrrolo[3′,4′:3,4]pyrrolo[1,2-a]pyrazine]-1′,2,3′(2′H,3b′H)-trione], 18.1 ± 4 nM; that for `Cc1c(Cl)ccc2c1NC(=O)[C@@]21[C@H]2C(=O)N(c3ccccc3)C(=O)[C@H]2[C@H]2CN(C(=O)OC(C)(C)C)CCN21` (racemic) [Compound 14, (±)-tert-Butyl (3R,3a′R,3b′S,9a′S)-6-chloro-7-methyl-1′,2,3′-trioxo-2′-phenyl-2′,3′,3a′,3b′,4′,6′,7′,9a′-octahydrospiro[indoline-3,9′-pyrrolo[3′, 4′:3,4]pyrrolo[1,2-a]pyrazine]-5′(1′H)-carboxylate], 5.6 ± 3 nM.
As to `Cc1ccc2c(c1C)NC(=O)[C@@]21[C@H]2C(=O)N(c3ccccc3)C(=O)[C@H]2[C@H]2CN(C(=O)OC(C)(C)C)CCN21` (racemic) [Compound 23, (±)-tert-Butyl (3R,3a′R,3b′S,9a′S)-6,7-dimethyl-1′,2,3′-trioxo-2′-phenyl-2′,3′,3a′,3b′,4′,6′,7′,9a′-octahydrospiro[indoline-3,9′-pyrrolo[3′,4′:3,4]pyrrolo[1,2-a]pyrazine]-5′(1′H)-carboxylate], the EC50 is 5.7 ± 6 nM.
Same read-out and setting: the result for `Cc1c(Cl)ccc2c1NC(=O)[C@]21N[C@H](Cc2ccccc2)[C@@H]2C(=O)N(c3ccccc3)C(=O)[C@@H]21` (racemic) [Compound 13, (±)-(3R,3′R,3a′R,6a′S)-3′-Benzyl-6-chloro-7-methyl-5′-phenyl-2′,3′,3a′, 6a′-tetrahydro-4′H-spiro[indoline-3,1′-pyrrolo[3,4-c]pyrrole]-2,4′,6′ (5′H)-trione] reads 1 ± 0.5 nM; that for `O=C1[C@H]2[C@@H](Cc3ccccc3)N[C@]3(C(=O)Nc4ccccc43)[C@H]2C(=O)N1Cc1ccccc1` (racemic) [Compound 8, (±)-(3R,3′R,3a′R,6a′S)-3′,5′-Dibenzyl-2′,3′,3a′,6a′-tetrahydro-4′H-spiro [indoline-3,1′-pyrrolo[3,4-c]pyrrole]-2,4′,6′(5′H)-trione], about 10000 nM.
Same read-out and setting: the result for `O=C1[C@H]2[C@@H](Cc3ccccc3)N[C@]3(C(=O)N(Cc4ccccc4)c4ccccc43)[C@H]2C(=O)N1c1ccccc1` (racemic) [Compound 12, (±)-(3R,3′R,3a′R,6a′S)-1,3′-Dibenzyl-5′-phenyl-2′,3′,3a′,6a′-tetrahydro-4′H-spiro[indoline-3,1′-pyrrolo[3,4-c]pyrrole]-2,4′,6′(5′H)-trione] reads over 100000 nM; that for `O=C1[C@H]2[C@@H](Cc3c[nH]c4ccccc34)N[C@]3(C(=O)Nc4ccccc43)[C@H]2C(=O)N1Cc1ccccc1` (racemic) [Compound 9, (±)-(3R,3′R,3a′R,6a′S)-3′-((1H-Indol-3-yl)methyl)-5′-benzyl-2′,3′,3a′,6a′-tetrahydro-4′H-spiro[indoline-3,1′-pyrrolo[3,4-c]pyrrole]-2,4′,6′(5′H)-trione], about 10000 nM.
Still for that read-out and setting: then `Cc1c(Cl)ccc2c1NC(=O)[C@@]21[C@H]2C(=O)N(c3ccccc3)C(=O)[C@H]2[C@H]2CNCCN21` (racemic) [Compound 26, (±)-(3R,3a′R,3b′S,9a′S)-6-chloro-7-methyl-2′-phenyl-3a′,4′,5′,6′,7′,9a′-hexahydrospiro[indoline-3,9′-pyrrolo[3′,4′:3,4]pyrolo[1,2-a]pyrazine]-1′,2,3′(2′H,3b′H)-trione], with about 10000 nM.

The next assay relates to partially resistant clinical isolate of C. albicans CaCi-8.
Test: not given
The following applies: against CaCi-8 with fluconazole; none active below this; ref [48]–[50]; cited from earlier work.
`O=C(c1ccc(Cl)cc1)N1CCN(c2ccnc3cc(Cl)ccc23)CC1` [ML189]: the active concentration is at least 0.7 µM.
Regarding `O=C(Cn1c2ccccc2c2nc3n(c(=O)c21)CCS3)N1CCCC1` [ML229], the active concentration is at least 0.7 µM.
Turning to `COC(=O)Cn1nc(-c2cccc(OC)c2)c2ccccc21` [ML212], the active concentration was at least 0.7 µM.

Staying with this assay, now noted: enhancing the effect of fluconazole against CaCi-8; ref [68]; cited from earlier work.
For the compound `Cc1c(Cl)ccc2c1NC(=O)[C@]21N[C@@H](Cc2ccccc2)[C@H]2C(=O)N(c3ccc(F)cc3)C(=O)[C@H]21` [CID 6584729, (1S,3R,3aR,6aS)-1-benzyl-6′-chloro-5-(4-fluorophenyl)-7′-methylspiro[1,2,3a,6a-tetrahydropyrrolo[3,4-c]pyrrole-3,3′-1H-indole]-2′,4,6-trione], the concentration for a half-maximal effect (EC50) is 120 nM.

Usually EC50 stands for the midpoint of the concentration-response curve.

Values taken from article PMC4682886 (ChemMedChem, 2015).
